Read-outs that look alike come from different tables or passages of the source.
Legend:
[1] = Phase 1 study: plasma pharmacokinetics in patients; format: in vivo, human; conditions: for conversion to compound (1-h) in patients: plasma PK after oral dosing
Procedure: All patients received compound (1-g) orally. The time of day for administration of compound (1-g) was consistent. Compound (1-g) was taken whole with liquid(s) and with food in the morning. The patient avoided taking other medications at the same time as compound (1-g). When possible, the patient took other medications in the evening or separated by a minimum of 4 hours following compound (1-g) dosing. On scheduled PK collection days (Cycle 1 Day 1, Cycle 1 Day 15, and Day 1 of Cycles 2, 3, 4, and 6) patients were instructed to wait until they arrive at the study center to take their study drug when told. If a patient missed a dose of compound (1-g), the patient was required to take the dose as soon as possible, but not less than 12 hours before the next dose is due. If vomiting occurred after taking the study treatment, the patient was instructed not to retake the dose and record the dose recorded as taken in the dosing diary, noting that the patient vomited and marking the time of vomiting. Patients were instructed to take the next scheduled dose of compound (1-g).
The plasma PK parameters (including AUC(0-∞), AUC(0-τ), Cmax, tmax, and T1/2) of compound (1-g) following oral administration was assessed by analysis of blood samples. During treatment, PK blood samples were taken at approximately the following time points: • Cycle 1 Day 1, and Day 15: pre-dose; at 1, 2, and 4-hour post-dose (±5 min); 6 and 8-hour post-dose (±10 min); and 24 hours post-dose (+1 hour); • Cycle 2, 3, 4, and 6 Day 1: pre-dose only.
Plasma concentrations of compound (1-g) were used to calculate the PK parameters. These parameters were listed by individual patient and summarized by descriptive statistics (means, medians, ranges, standard deviations, and coefficients of variation as appropriate) by cohort.
Compound (1-g) was administered orally to patients once a day at 100, 200, 300 mg, 400 mg, and 600 mg doses.

ERa [2] = target: T1, ERa (Homo sapiens, UniProt P03372); test: Binding to human ERa; conditions: for IC50: read-out: half-maximal inhibitory concentration (IC50) (converted)
T1 sequence (P03372 1-595): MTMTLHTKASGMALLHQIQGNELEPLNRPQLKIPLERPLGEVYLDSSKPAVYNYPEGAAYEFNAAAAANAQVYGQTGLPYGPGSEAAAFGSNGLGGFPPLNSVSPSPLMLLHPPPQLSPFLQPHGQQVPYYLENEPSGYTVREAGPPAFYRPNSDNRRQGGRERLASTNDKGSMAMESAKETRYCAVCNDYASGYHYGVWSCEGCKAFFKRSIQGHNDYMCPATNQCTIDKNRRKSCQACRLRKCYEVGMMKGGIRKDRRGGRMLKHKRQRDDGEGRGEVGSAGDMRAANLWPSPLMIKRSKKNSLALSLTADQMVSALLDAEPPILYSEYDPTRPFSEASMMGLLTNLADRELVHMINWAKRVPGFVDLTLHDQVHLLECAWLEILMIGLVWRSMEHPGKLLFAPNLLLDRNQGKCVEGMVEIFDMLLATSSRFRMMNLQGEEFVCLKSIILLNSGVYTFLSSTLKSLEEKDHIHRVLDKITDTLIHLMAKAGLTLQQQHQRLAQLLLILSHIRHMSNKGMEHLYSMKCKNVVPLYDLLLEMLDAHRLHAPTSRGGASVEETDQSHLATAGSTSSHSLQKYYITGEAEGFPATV

ERa [3] = target: T1, ERa; test: ERa degradation in ERa-positive breast cancer cell lines; format: cell-based; conditions: multiple ERa-positive breast cancer cell lines, such as MCF7
CYP1A2 = CYP1A2 (Homo sapiens, UniProt P05177); test: CYP1A2 direct inhibition; format: in vitro ADME; conditions: highest concentration evaluated (10 μM)
Sequence of CYP1A2 (P05177 whole entry): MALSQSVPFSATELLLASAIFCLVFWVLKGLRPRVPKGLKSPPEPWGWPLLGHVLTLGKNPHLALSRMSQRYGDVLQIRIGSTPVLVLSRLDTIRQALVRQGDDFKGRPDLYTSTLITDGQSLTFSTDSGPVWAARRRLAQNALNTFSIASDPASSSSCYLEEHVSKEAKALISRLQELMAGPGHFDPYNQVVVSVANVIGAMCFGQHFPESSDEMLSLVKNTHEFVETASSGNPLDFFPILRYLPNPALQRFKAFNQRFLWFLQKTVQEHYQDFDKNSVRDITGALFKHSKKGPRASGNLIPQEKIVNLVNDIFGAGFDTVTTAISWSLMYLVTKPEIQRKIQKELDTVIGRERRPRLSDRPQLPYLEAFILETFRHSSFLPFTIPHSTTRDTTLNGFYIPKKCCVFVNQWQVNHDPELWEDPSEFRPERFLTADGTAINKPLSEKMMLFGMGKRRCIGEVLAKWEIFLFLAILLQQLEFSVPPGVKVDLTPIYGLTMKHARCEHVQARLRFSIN

MCF7 cells = test: MCF7 cell growth inhibition (luminescence-based proliferation assay, CellTiter-Glo)
Procedure: MCF7 cells were obtained from American Type Culture Collection (ATCC). For cell growth assay, MCF7 cells were seeded in 96-well plates at 2000 cells/well in 90 μL of DMEM medium containing 10% fetal bovine serum, and then incubated at 37° C. with 5% CO2 in air overnight. The following day, compound (1-g) and compound (1-h) were administered to the cells by using 1000× compound stock solution prepared in DMSO at concentrations of 3, 1, 0.33, 0.11, 0.037, 0.012, 0.0041, 0.0013, and 0.00046 mM. 1000x compound stock solution was first diluted in culturing medium to 10×, then 10 μL compound medium was added to each well in the cell plates. After administration of compound (1-g) and compound (1-h), the cells were then incubated at 37° C. for 6 days. Upon completion, the plates were equilibrated at room temperature for approximately 10 minutes. 100 μL of CellTiter-Glo® Reagent (Promega) was added to each well. The plates were then incubated at room temperature for 10 minutes and luminescence was recorded by EnSpire plate reader (PerkinElmer).

## O=C1CC[C@H](N2Cc3cc(N4CCN(CC5CCN(c6ccc([C@@H]7c8ccc(O)cc8OC[C@@H]7c7ccccc7)cc6F)CC5)CC4)ccc3C2=O)C(=O)N1 [compound (1-g), (S)-3-(5-(4-((1-(2-fluoro-4-((3S,4R)-7-hydroxy-3-phenylchroman-4-yl)phenyl)piperidin-4-yl)methyl)piperazin-1-yl)-1-oxoisoindolin-2-yl)piperidine-2,6-dione]
[1]; human, plasma, po, 100 mg, patient plasma, oral (1-g) 100 mg QD, C1D1, n = 3, *median value, read-out: Tmax*
  Tmax: 12.7 h
[1]; human, plasma, po, 100 mg, patient plasma, oral (1-g) 100 mg QD, C1D1, n = 3, mean, read-out: AUC0-24 h
  AUC(0-t): 7570 ng·h/mL
[1]; human, plasma, po, 100 mg, patient plasma, oral (1-g) 100 mg QD, C1D1, n = 3, mean, read-out: Cmax
  Cmax: 432 ng/mL
[1]; human, plasma, po, 100 mg, patient plasma, oral (1-g) 100 mg QD, C1D1, n = 3, mean, read-out: T½ (converted)
  half-life: 1210 min
[1]; human, plasma, po, 100 mg, patient plasma, oral (1-g) 100 mg QD, C1D15 (steady state), n = 3, mean, read-out: AUC0-24 h
  AUC(0-t): 19500 ng·h/mL
[1]; human, plasma, po, 100 mg, patient plasma, oral (1-g) 100 mg QD, C1D15 (steady state), n = 3, mean, read-out: Cmax
  Cmax: 1010 ng/mL
[1]; human, plasma, po, 100 mg, patient plasma, oral (1-g) 100 mg QD, C1D15, n = 3, *median value, read-out: Tmax*
  Tmax: 6.67 h
[1]; human, plasma, po, 100 mg, patient plasma, oral (1-g) 100 mg QD, C1D15, n = 3, mean, read-out: T½ (converted)
  half-life: 1920 min
[1]; human, plasma, po, 200 mg, patient plasma, oral (1-g) 200 mg QD, C1D1, n = 12, *median value, read-out: Tmax*
  Tmax: 5.5 h
[1]; human, plasma, po, 200 mg, patient plasma, oral (1-g) 200 mg QD, C1D1, n = 12, mean, read-out: AUC0-24 h
  AUC(0-t): 11200 ng·h/mL
[1]; human, plasma, po, 200 mg, patient plasma, oral (1-g) 200 mg QD, C1D1, n = 12, mean, read-out: Cmax
  Cmax: 630 ng/mL
[1]; human, plasma, po, 200 mg, patient plasma, oral (1-g) 200 mg QD, C1D1, n = 12, mean, read-out: T½ (converted)
  half-life: 2300 min
[1]; human, plasma, po, 200 mg, patient plasma, oral (1-g) 200 mg QD, C1D15 (steady state), n = 12, mean, read-out: AUC0-24 h
  AUC(0-t): 26000 ng·h/mL
[1]; human, plasma, po, 200 mg, patient plasma, oral (1-g) 200 mg QD, C1D15 (steady state), n = 12, mean, read-out: Cmax
  Cmax: 1340 ng/mL
[1]; human, plasma, po, 200 mg, patient plasma, oral (1-g) 200 mg QD, C1D15, n = 12, *median value, read-out: Tmax*
  Tmax: 4 h
[1]; human, plasma, po, 200 mg, patient plasma, oral (1-g) 200 mg QD, C1D15, n = 12, mean, read-out: T½ (converted)
  half-life: 2930 min
[1]; human, plasma, po, 300 mg, patient plasma, oral (1-g) 300 mg QD, C1D1, n = 10, *median value, read-out: Tmax*
  Tmax: 5.8 h
[1]; human, plasma, po, 300 mg, patient plasma, oral (1-g) 300 mg QD, C1D1, n = 10, mean, read-out: AUC0-24 h
  AUC(0-t): 16600 ng·h/mL
[1]; human, plasma, po, 300 mg, patient plasma, oral (1-g) 300 mg QD, C1D1, n = 10, mean, read-out: Cmax
  Cmax: 963 ng/mL
[1]; human, plasma, po, 300 mg, patient plasma, oral (1-g) 300 mg QD, C1D1, n = 10, mean, read-out: T½ (converted)
  half-life: 1870 min
[1]; human, plasma, po, 300 mg, patient plasma, oral (1-g) 300 mg QD, C1D15 (steady state), n = 10, mean, read-out: AUC0-24 h
  AUC(0-t): 41800 ng·h/mL
[1]; human, plasma, po, 300 mg, patient plasma, oral (1-g) 300 mg QD, C1D15 (steady state), n = 10, mean, read-out: Cmax
  Cmax: 2190 ng/mL
[1]; human, plasma, po, 300 mg, patient plasma, oral (1-g) 300 mg QD, C1D15, n = 10, *median value, read-out: Tmax*
  Tmax: 4.8 h
[1]; human, plasma, po, 300 mg, patient plasma, oral (1-g) 300 mg QD, C1D15, n = 10, mean, read-out: T½ (converted)
  half-life: 1970 min
[1]; human, plasma, po, 400 mg, patient plasma, oral (1-g) 400 mg QD, C1D1, n = 6, *median value, read-out: Tmax*
  Tmax: 6 h
[1]; human, plasma, po, 400 mg, patient plasma, oral (1-g) 400 mg QD, C1D1, n = 6, mean, read-out: AUC0-24 h
  AUC(0-t): 18800 ng·h/mL
[1]; human, plasma, po, 400 mg, patient plasma, oral (1-g) 400 mg QD, C1D1, n = 6, mean, read-out: Cmax
  Cmax: 1070 ng/mL
[1]; human, plasma, po, 400 mg, patient plasma, oral (1-g) 400 mg QD, C1D1, n = 6, mean, read-out: T½ (converted)
  half-life: 1820 min
[1]; human, plasma, po, 400 mg, patient plasma, oral (1-g) 400 mg QD, C1D15, n = 5, *median value, read-out: Tmax*
  Tmax: 4.4 h
[1]; human, plasma, po, 400 mg, patient plasma, oral (1-g) 400 mg QD, C1D15, n = 5, mean, read-out: AUC0-24 h
  AUC(0-t): 45900 ng·h/mL
[1]; human, plasma, po, 400 mg, patient plasma, oral (1-g) 400 mg QD, C1D15, n = 5, mean, read-out: Cmax
  Cmax: 2360 ng/mL
[1]; human, plasma, po, 400 mg, patient plasma, oral (1-g) 400 mg QD, C1D15, n = 5, mean, read-out: T½ (converted)
  half-life: 2690 min
[1]; human, plasma, po, 600 mg, patient plasma, oral (1-g) 600 mg QD, C1D1, n = 4, *median value, read-out: Tmax*
  Tmax: 4.5 h
[1]; human, plasma, po, 600 mg, patient plasma, oral (1-g) 600 mg QD, C1D1, n = 4, mean, read-out: AUC0-24 h
  AUC(0-t): 26100 ng·h/mL
[1]; human, plasma, po, 600 mg, patient plasma, oral (1-g) 600 mg QD, C1D1, n = 4, mean, read-out: Cmax
  Cmax: 1390 ng/mL
[1]; human, plasma, po, 600 mg, patient plasma, oral (1-g) 600 mg QD, C1D1, n = 4, mean, read-out: T½ (converted)
  half-life: 2450 min
[1]; human, plasma, po, 600 mg, patient plasma, oral (1-g) 600 mg QD, C1D15, n = 4, *median value, read-out: Tmax*
  Tmax: 6 h
[1]; human, plasma, po, 600 mg, patient plasma, oral (1-g) 600 mg QD, C1D15, n = 4, mean, read-out: AUC0-24 h
  AUC(0-t): 48600 ng·h/mL
[1]; human, plasma, po, 600 mg, patient plasma, oral (1-g) 600 mg QD, C1D15, n = 4, mean, read-out: Cmax
  Cmax: 2680 ng/mL
[1]; human, plasma, po, 600 mg, patient plasma, oral (1-g) 600 mg QD, C1D15, n = 4, mean, read-out: T½ (converted)
  half-life: 1650 min
[1]; human, plasma, po, patients, 100-600 mg QD oral, read-out: AUC0-24h, range
  AUC(0-t): 7570 to 48600 ng·h/mL
[1]; human, plasma, po, patients, 100-600 mg QD oral, read-out: Cmax, range
  Cmax: 432 to 2680 ng/mL
[1]; human, plasma, po, patients, 100-600 mg QD oral, read-out: mean effective T1/2 at steady state, range
  half-life: 1210 to 2930 min
[1]; human, plasma, po, patients, 100-600 mg QD oral, read-out: median Tmax, range across the dose levels
  Tmax: 4 to 13 h
[1]; patient plasma, oral (1-g) 100 mg QD, C1D15 (steady state), n = 3, mean
  Cmax: 1008.67 ng/mL
[1]; patient plasma, oral (1-g) 200 mg QD, C1D15 (steady state), n = 12, mean
  Cmax: 1341.75 ng/mL
[1]; patients, FIGS. 4A, 4C, 4D
  dose proportionality of pharmacokinetics: dose proportional relationship up to 400 mg but almost plateaued at 400 mg
[1]; patients, preliminary results
  Cmax and AUC0-24h versus dose: dose-dependent increases
[1]
  conversion to compound (1-h) in patients: partially converted to compound (1-h)
[1]; listed as 1-g
  conversion to compound (1-h) in patients: partially metabolized to form compound 1-h
ERa [2]
  IC50: 6.02 nM
ERa [2]; read-out: inhibitor constant (Ki)
  Ki: 0.53 nM
ERa [2]; same value in ng/mL
  IC50: 5.91 nM
ERa [3]
  ERa degradation: induces rapid ERa degradation
CYP1A2
  CYP1A2 direct inhibition: did not directly inhibit
MCF7 cells; Homo sapiens, 144 h, MCF7 cells, 6 days, CellTiter-Glo
  GI50: 6.2 nM
MCF7 cells; MCF7 cell proliferation assay
  reduced the tumor growth by (FIG. 3A/3B): about 50%
